{"source": "patent EP3075378A1", "about": "“ANTI-INFLAMMATORY AGENT AND MELANIN PRODUCTION SUPPRESSANT” (Kao Corporation, priority 2013, dated 2015)", "key": {"[1]": {"assay": "Test of melanin production suppression, using three-dimensional cultured skin model", "assay_type": "cell-based, human", "conditions": "Homo sapiens, 264 h; Addition concentration 5 mmol/L; method as Example 6; relative to control (H2O) 100; read-out: Melanin amount (%)", "description": "(§1) A three-dimensional cultured skin model (MEL-300-A, manufactured by MatTek Corporation) composed of normal human epidermal melanocytes and epidermal keratinocytes was cultured, using the attached medium to which factors inducing melanin production were added. 25 µL of a pentaerythritol solution (1 or 5 mmol/L) was added onto the keratinous layer of the skin model. The skin model was cultured for 11 days exchanging the medium and the test substance solution every 2 to 3 days, and then the skin model was washed, and the cell survival rate was measured using Alamar Blue (manufactured by Invitrogen). In addition, the skin model was dissolved under heating in SOLVABLE (manufactured by Perkin Elmar), and the absorbance (405 nm) was measured and the amount of melanin was calculated relative to a standard determined by similarly dissolving melanin (manufactured by SIGMA) in SOLVABLE. The amount of melanin was determined relative to 100 (%) of the control (H2O addition).\n(§2) The test method is similar to that of Example 6."}, "[2]": {"system": "three-dimensional cultured skin model (MEL-300-A) composed of normal human epidermal melanocytes and epidermal keratinocytes", "assay": "Cell survival rate (Alamar Blue) in three-dimensional cultured skin model", "assay_type": "cell-based", "description": "as §1, §2"}, "[3]": {"system": "Normal human epidermal cells", "assay": "Test-1 of PGE2 production suppression (arachidonic acid added)", "assay_type": "cell-based", "conditions": "culture supernatant after one day, control 1711.7 ± 25.91", "description": "Normal human epidermal cells were seeded on a 24 well plate by 2 × 10^5 each, and cultured for 2 days on a MCDB153 medium. The medium was exchanged with a MCDB153 medium containing arachidonic acid (manufactured by Wako Pure Chemical Industries, Ltd.), which is a substrate of PGE2, and pentaerythritol (manufactured by JUNSEI CHEMICAL CO., LTD.) or the two acetal derivatives of pentaerythritol (the compounds of Examples 1 and 2), and the cells were further cultured for one day. As a control, purified water was added instead of pentaerythritol or the acetal derivative of pentaerythritol. After completion of the culture, the amount of PGE2 released in the cultured supernatant was quantified using a PGE2 measurement kit (manufactured by Cayman Chemical Company). In addition, in the same manner as the control, a control group to which purified water was added, but arachidonic acid was not added, was provided."}, "[4]": {"system": "Normal human epidermal cells", "assay": "Test-2 of PGE2 production suppression (UVB irradiation)", "assay_type": "cell-based", "conditions": "after 30 mJ/cm^2 UVB, culture supernatant after one day, control 670.1 ± 23.97", "description": "Normal human epidermal cells were seeded on a 24 well plate by 2 × 10^5 each, and cultured for two days on a MCDB153 medium. The medium was replaced with HEPES Buffer, and was irradiated with 30 mJ/cm^2 UVB using a UVB lamp (TOREX FL20S and E-30/DMR 20W manufactured by TOSHIBA MEDICAL SUPPLY CO., LTD.). The intensity of ultraviolet rays was measured with a digital type ultraviolet intensity meter (manufactured by Ultraviolet). After the UVB irradiation, the medium was exchanged with a MCDB153 medium containing pentaerythritol (manufactured by JUNSEI CHEMICAL CO., LTD.), and further cultured for one day. As a control, purified water was added instead of pentaerythritol. After completion of the culture, the amount of PGE2 released in the culture supernatant was quantified using a PGE2 measurement kit (manufactured by Cayman Chemical Company). In addition, in the same manner as the control, a control group containing purified water and not irradiated with UVB was provided."}, "[5]": {"system": "three-dimensional cultured skin model (MEL-300-A) composed of normal human epidermal melanocytes and epidermal keratinocytes", "assay": "Test of melanin production suppression, using three-dimensional cultured skin model", "assay_type": "cell-based", "conditions": "25 µL on keratinous layer, 11 days culture, relative to 100 (%) of control (H2O)", "description": "as §1, §2"}}, "data": [{"smiles": "OC[C@@H](O)[C@@H](O)CO", "note": "[Erythritol, reference compound]", "values": [{"measurement": "activity at 5000 µM", "setting": "[1]", "result": 97, "unit": "%"}]}, {"smiles": "OC[C@@H](O)[C@@H](O)[C@H](O)[C@H](O)CO", "note": "[Mannitol, reference compound]", "values": [{"measurement": "activity at 5000 µM", "setting": "[1]", "result": 96.3, "unit": "%"}, {"measurement": "cell toxicity", "setting": "[2]; 5 mmol/L, Example 7, method as Example 6", "result": "not detected"}]}, {"smiles": "OCC(CO)(CO)CO", "note": "[Pentaerythritol]", "values": [{"measurement": "PGE2 amount (pg/mL) ± SD", "setting": "[3]; sample concentration 0.5 µM", "result": "789.2 ± 168.61", "unit": "pg/mL"}, {"measurement": "PGE2 amount (pg/mL) ± SD", "setting": "[3]; sample concentration 5.0 µM", "result": "1151.3 ± 6.73", "unit": "pg/mL"}, {"measurement": "PGE2 amount (pg/mL) ± SD", "setting": "[4]; sample concentration 0.05 µM", "result": "565.5 ± 28.10", "unit": "pg/mL"}, {"measurement": "PGE2 amount (pg/mL) ± SD", "setting": "[4]; sample concentration 0.5 µM", "result": "522.8 ± 50.40", "unit": "pg/mL"}, {"measurement": "PGE2 amount (pg/mL) ± SD", "setting": "[4]; sample concentration 5.0 µM", "result": "512.3 ± 65.31", "unit": "pg/mL"}, {"measurement": "amount of melanin (%)", "setting": "[5]; 1 mmol/L", "result": 83.8, "unit": "%"}, {"measurement": "amount of melanin (%)", "setting": "[5]; 5 mmol/L", "result": 76.7, "unit": "%"}, {"measurement": "cell toxicity", "setting": "[2]; 1 or 5 mmol/L, any test addition concentration, 11 days culture", "result": "not detected"}]}, {"smiles": "CC1(C)OCC2(CO1)COC(C)(C)OC2", "note": "[diisopropylidene pentaerythritol]", "values": [{"measurement": "PGE2 amount (pg/mL) ± SD", "setting": "[3]; sample concentration 0.5 µM", "result": "746.0 ± 28.70", "unit": "pg/mL"}, {"measurement": "PGE2 amount (pg/mL) ± SD", "setting": "[3]; sample concentration 5.0 µM", "result": "1142.0 ± 19.94", "unit": "pg/mL"}]}, {"smiles": "CC1(C)OCC(CO)(CO)CO1", "note": "[monoisopropylidene pentaerythritol]", "values": [{"measurement": "PGE2 amount (pg/mL) ± SD", "setting": "[3]; sample concentration 0.5 µM", "result": "824.7 ± 28.78", "unit": "pg/mL"}, {"measurement": "PGE2 amount (pg/mL) ± SD", "setting": "[3]; sample concentration 5.0 µM", "result": "790.5 ± 11.64", "unit": "pg/mL"}]}]}
